Results on two compounds are retold here after patent USRE43712E1, “Methods for assaying for antidepressant therapy markers” (The Board of Trustees of the Uniersity of Illinois, priority 2000, dated 2012).

Holding throughout (format): cell-based
For assay [1], the system named is Gsα. The assay can be described thus: Gsα in Triton-insoluble, caveolin-enriched versus Triton-soluble fraction of C6-2B cells (sucrose density gradient, immunoblot). Particulars: chronic treatment, FIG. 3C. Here is the method: (§1) Rat cortex membrane, C6-2B cell membranes, or Triton extracts of each membrane preparation were subjected to SDS-PAGE followed by electrotransfer to polyvinylidene difluoride (PVDF) membrane. The PVDF membrane was incubated with a phosphate-buffered saline/Tween 20 Buffer (140 mM NaCl, […]. 0.1% Tween 20, pH 7.4) and 3% bovine serum albumin. The membrane was then incubated with polyclonal rabbit antisera against the various G protein subunits [RM (Gsα) or 116 (Gi1, Gi2, Gi3α)] at a 1:25,000 (RM) or 1:5,000 (116) dilution (see below for source of antibodies). […] Immunoreactivity was detected with an enhanced chemiluminescence (ECL) western blot detection system (Amersham) in accord with the manufacturer's instructions. The developed autoradiographs were analyzed by densitometry.
On the technique in general: Immunoblotting shows a protein as a band on a membrane.

In a further assay the test system is Goα. In words: Cellular localization of Goα in C6-2B cells, immunofluorescence confocal microscopy. Particulars: 10 μM desipramine 3 days, approximately 500 cells, FIG. 9. Here is the method: C6-2B cells (between passages 30 and 50) were plated onto coverslips and allowed to attach overnight in Dulbecco's modified Eagle's medium. 4.5 g/l glucose, 10% bovine serum, and 100 μg/ml penicillin and streptomycin at 37° C. in a humidified 10% CO2 atmosphere. […] Therefore, the latter treatment paradigm was used in these experiments because it was easier to maintain the cell cultures for 3 days. […] The culture media and drug were changed daily. […] After the treatment duration, the cells were incubated in drug-free media for 45 to 60 minutes before fixation.
After treatment, cells were washed once with phosphate-buffered saline (PBS, […] NaCl, 2.6 mM KCl, 5.4 mM NaαPO4 7H2O, pH 7.4) and fixed with ice-cold methanol for 10 minutes. Cells were then washed three times with PBS followed by 2 h of blocking in 5% normal goat serum/0.2% fish skin gelatin in PBS. Primary antibody was added for 1.5 h, Gsα/RM1 (PerkinElmer Life Sciences, Boston, Mass.) 1:50 and Goα (Santa Cruz Biotechnology, Santa Cruz, Calif.) 2 μg/ml, followed by three washes with PBS. Oregon Green-labeled secondary antibody (Molecular Probes, Eugene, Oreg.) was added at a concentration of 8 μg/ml for 1 h followed by three PBS washes. […] Approximately 2100 cells from control and desipramine-treated coverslips were counted by two investigators blind to the experimental conditions over the course of the five experiments. […]

The test system of assay [2] is Gsα. The assay can be described thus: Content of G protein (Gsα) in C6-2B glioma membranes after antidepressant treatment, quantitative immunoblot. Here is the method:
C6-2B cells (between passages 20 and 40) were grown in 175-cm^2 flasks in Dulbecco's modified Eagle medium, 4.5 g of glucose/L, 10% bovine serum, in a 10% CO2 atmosphere, at 37° C. for 3 days after splitting. […] Male Sprague-Dawley rats weighing 150-200 g were fed ad libitum and maintained in a 12-h light/dark cycle. […] 36:803-838, 1989]. […] Rat cerebral cortex membranes were prepared according to the method of Rasenick et al. [Nature, 294:560-562; 1981].
as §1
Purified recombinant GsαL (long form of Gsα; 1-10 ng/lane) was subjected to SDS-PAGE and transferred to PVDF membranes. The blots were incubated with antibody against Gsα (RM) and processed by ECL. Films were analyzed on a Molecular Dynamics densitometer, and the volume of each band was quantified and used to make a standard curve.
Experiments were conducted to determine whether Gsα is quantitatively altered by antidepressant therapy. For quantification of Gsα in C6-2B membrane, a standard curve was created using purified recombinant […]. Pure Gsα (1-20 ng/well) was subjected to SDS-PAGE and transferred to a PVDF membrane, Gsα was immunodetected by antisera against the as subunit of G protein.
To estimate the effect of antidepressant treatment on the amount of Gsα in C6-2B membranes, equal amounts (10 μg) of C6-2B glioma membrane proteins in control and chronically (3 days) antidepressant-treated groups were subjected to SDS-PAGE. Gsα was immunodetected by antisera against the αs subunit of G protein.

[3] abbreviates: C6-2B membranes, 10 μM drug for 3 days, mean ± SEM of 4-5 experiments.

Turning to `CNCCCN1c2ccccc2CCc2ccccc21` [Desipramine, desipramine], the “Decrease of the amount of Gsα in the caveolin-enriched Triton-insoluble fraction, normalized to equal caveolin” value in the assay on Gsα [1] is about 50%. For the same compound, the “Change in the distribution of Goα” value in the assay on Goα was “little if any change”.
`CNCCC(Oc1ccc(C(F)(F)F)cc1)c1ccccc1` (stereo not drawn) [Fluoxetine, fluoxetine]: the “Quantity of G proteins in membrane, treated versus control” value with Gsα [2] (C6-2B cells, 10 μM, 3 days, p>0.05) is reported as “no significant differences”. In the assay on Gsα [2] (setting [3]), the “G protein amount, Total” value is listed as 12.49 ± 0.67 ng/10 ug of membrane protein; the “G protein amount, αsL” value is 7.23 ± 0.56 ng/10 ug of membrane protein; the “G protein amount, αsS” value was 5.65 ± 0.74 ng/10 ug of membrane protein.
